Results as given in US4103082A, “Aminocyclitol derivatives and process for producing the same” (priority 1975, dated 1978).
≈ marks a conversion by molar mass, not a printed value.

Tests used:
[1] = system: Vibrio parahaemolyticus K-3; assay: antibacterial activity (Minimum Inhibitory Concentration); format: cell-based; settings: K3; Vibrio parahaemolyticus K-3; read-out: MIC
[2] = system: Enterococcus species C73-33; assay: as above; format: cell-based; settings: Enterococcus, C7333
Klebsiella 7 = assay: paper disk method, inhibitory zone diameter; format: cell-based; settings: Klebsiella, 7; 2000 γ/ml; read-out: inhibitory zone diameter
E. coli C73-12 = assay: antibacterial activity (Minimum Inhibitory Concentration); format: cell-based; settings: Escherichia coli, C7312
Proteus morganii Kono = assay: as above; format: cell-based; settings: Morganella morganii
[3] = system: Enterococcus species C73-17; assay: as above; format: cell-based; settings: Enterococcus, C7317
microorganisms indicated = assay: antimicrobial activities, paper disk method (general statement); format: cell-based; settings: Tables 1 to 4
Description: The inhibitory activities were determined at various concentrations of the compounds using the paper disk method against the microorganisms indicated and the numerical values show the inhibitory zone diameter in terms of mm.

[4] = system: E. coli HL-1629 (Kanamycin-resistant strain); assay: microbe, parasite or virus in culture; format: cell-based; settings: Escherichia coli, read-out: inhibitory zone diameter
Pseudomonas 1007 = assay: paper disk method, inhibitory zone diameter; format: cell-based; settings: Pseudomonas, 1007; 2000 γ/ml; read-out: inhibitory zone diameter
[5] = system: Shigella dysenteriae Shigae; assay: microbe, parasite or virus in culture; format: cell-based
E. coli C73-4 = assay: antibacterial activity (Minimum Inhibitory Concentration); format: cell-based; settings: Escherichia coli, C734; E. coli C73-4; read-out: MIC
E. coli C73-1 = assay: as above; format: cell-based; settings: Escherichia coli, C731; E. coli C73-1; read-out: MIC
Proteus species C73-23 = assay: as above; format: cell-based; settings: Proteus species C73-23; read-out: MIC
[6] = system: Staphylococcus aureus Smith S-424; assay: as above; format: cell-based; settings: SMITHS424; Staphylococcus aureus Smith S-424; read-out: MIC
Klebsiella pneumoniae = assay: as above; format: cell-based
[7] = system: Staphylococcus albus PCI-1200A; assay: as above; format: cell-based; settings: PCI1200A; Staphylococcus albus PCI-1200A; read-out: MIC
Proteus species C73-33 = assay: as above; format: cell-based; settings: Proteus species C73-33; read-out: MIC
male ICR mice = assay: acute toxicity; settings: intravenous administration, 200 mg/kg
[8] = system: Vibrio parahaemolyticus K-5; assay: antibacterial activity (Minimum Inhibitory Concentration); format: cell-based; settings: K5; Vibrio parahaemolyticus K-5; read-out: MIC
Mycobacterium 607 = assay: paper disk method, inhibitory zone diameter; format: cell-based; settings: Mycobacterium, 607, read-out: inhibitory zone diameter
[9] = system: Salmonella species C73-30; assay: antibacterial activity (Minimum Inhibitory Concentration); format: cell-based; settings: C7330
[10] = system: Vibrio parahaemolyticus K-7; assay: as above; format: cell-based; settings: K7; Vibrio parahaemolyticus K-7; read-out: MIC
Klebsiella 6 = assay: paper disk method, inhibitory zone diameter; format: cell-based; settings: Klebsiella, 6; 2000 γ/ml; read-out: inhibitory zone diameter
[11] = system: Staphylococcus aureus No. 26; assay: antibacterial activity (Minimum Inhibitory Concentration); format: cell-based; settings: Staphylococcus aureus, NO.26
E. coli K-12 = assay: paper disk method, inhibitory zone diameter; format: cell-based; settings: Escherichia coli, K12, read-out: inhibitory zone diameter
[12] = system: Staphylococcus aureus 6538P; assay: paper disk method, inhibitory zone diameter; format: cell-based; settings: read-out: inhibitory zone diameter
[13] = system: Staphylococcus aureus 209P JC-1; assay: antibacterial activity (Minimum Inhibitory Concentration); format: cell-based; settings: Staphylococcus aureus 209P JC-1; read-out: MIC
Proteus species C73-34 = assay: as above; format: cell-based; settings: Proteus species C73-34; read-out: MIC
[14] = system: Bacillus subtilis ATCC 6633; assay: as above; format: cell-based; settings: ATCC6633; Bacillus subtilis ATCC 6633; read-out: MIC
Proteus species C73-25 = assay: as above; format: cell-based; settings: Proteus species C73-25; read-out: MIC
[15] = system: Staphylococcus aureus C73-10; assay: as above; format: cell-based; settings: Staphylococcus aureus, C7310
[16] = system: Staphylococcus aureus C73-21; assay: as above; format: cell-based; settings: C7321; Staphylococcus aureus C73-21; read-out: MIC
[17] = system: Bacillus anthracis No. 119; assay: microbe, parasite or virus in culture; format: cell-based
[18] = system: Staphylococcus aureus C73-4; assay: antibacterial activity (Minimum Inhibitory Concentration); format: cell-based; settings: Staphylococcus aureus, C734

NC[C@H]1O[C@H](O[C@H]2C[C@@H](O)[C@H](N)C[C@@H]2N)[C@H](N)[C@@H](O)[C@@H]1O [5-Deoxyneamine, 5-deoxyneamine]
MIC [1]: 0.39 µg/mL (≈ 1.27 µM)
MIC [2]: 6.25 µg/mL (≈ 20.4 µM)
zone of inhibition at 2000 µg/mL (Klebsiella 7): 0 mm
MIC (E. coli C73-12): 6.25 µg/mL (≈ 20.4 µM)
MIC (Proteus morganii Kono): 6.25 µg/mL (≈ 20.4 µM)
MIC [3]: 6.25 µg/mL (≈ 20.4 µM)
antimicrobial activities relative to neamine (microorganisms indicated): superior to those of the parent compound neamine
zone of inhibition at 1000 µg/mL [4]: 0 mm
zone of inhibition at 2000 µg/mL [4]: 13.9 mm
zone of inhibition at 2000 µg/mL (Pseudomonas 1007): 0 mm
MIC [5]: 6.25 µg/mL (≈ 20.4 µM)
MIC (E. coli C73-4): 12.5 µg/mL (≈ 40.8 µM)
MIC (E. coli C73-1): 12.5 µg/mL (≈ 40.8 µM)
MIC (Proteus species C73-23): 12.5 µg/mL (≈ 40.8 µM)
MIC [6]: 0.78 µg/mL (≈ 2.55 µM)
MIC (Klebsiella pneumoniae): 6.25 µg/mL (≈ 20.4 µM)
MIC [7]: 0.2 µg/mL (≈ 0.653 µM)
MIC (Proteus species C73-33): 50 µg/mL (≈ 163 µM)
acute toxicity, survival (male ICR mice): all male ICR mice were survived
MIC [8]: 12.5 µg/mL (≈ 40.8 µM)
zone of inhibition at 62.5 µg/mL (Mycobacterium 607; 62.5 γ/ml): 0 mm
zone of inhibition at 125 µg/mL (Mycobacterium 607; 125 γ/ml): 0 mm
zone of inhibition at 250 µg/mL (Mycobacterium 607; 250 γ/ml): 10.4 mm
zone of inhibition at 500 µg/mL (Mycobacterium 607; 500 γ/ml): 16.4 mm
zone of inhibition at 1000 µg/mL (Mycobacterium 607; 1000 γ/ml): 22 mm
zone of inhibition at 2000 µg/mL (Mycobacterium 607; 2000 γ/ml): 26.8 mm
MIC [9]: 12.5 µg/mL (≈ 40.8 µM)
MIC [10]: 12.5 µg/mL (≈ 40.8 µM)
zone of inhibition at 2000 µg/mL (Klebsiella 6): 0 mm
MIC [11]: 1.56 µg/mL (≈ 5.09 µM)
zone of inhibition at 7.8 µg/mL (E. coli K-12; 7.8 γ/ml): 0 mm
zone of inhibition at 15.6 µg/mL (E. coli K-12; 15.6 γ/ml): 0 mm
zone of inhibition at 31.2 µg/mL (E. coli K-12; 31.2 γ/ml): 12.1 mm
zone of inhibition at 62.5 µg/mL (E. coli K-12; 62.5 γ/ml): 14.7 mm
zone of inhibition at 125 µg/mL (E. coli K-12; 125 γ/ml): 17.2 mm
zone of inhibition at 250 µg/mL (E. coli K-12; 250 γ/ml): 18.7 mm
zone of inhibition at 500 µg/mL (E. coli K-12; 500 γ/ml): 22 mm
zone of inhibition at 1000 µg/mL (E. coli K-12; 1000 γ/ml): 24.5 mm
zone of inhibition at 2000 µg/mL (E. coli K-12; 2000 γ/ml): 26.6 mm
zone of inhibition at 7.8 µg/mL ([12]; 7.8 γ/ml): 0 mm
zone of inhibition at 15.6 µg/mL ([12]; 15.6 γ/ml): 0 mm
zone of inhibition at 31.2 µg/mL ([12]; 31.2 γ/ml): 0 mm
zone of inhibition at 62.5 µg/mL ([12]; 62.5 γ/ml): 10.3 mm
zone of inhibition at 125 µg/mL ([12]; 125 γ/ml): 12.4 mm
zone of inhibition at 250 µg/mL ([12]; 250 γ/ml): 15.3 mm
zone of inhibition at 500 µg/mL ([12]; 500 γ/ml): 18.5 mm
zone of inhibition at 1000 µg/mL ([12]; 1000 γ/ml): 20.4 mm
zone of inhibition at 2000 µg/mL ([12]; 2000 γ/ml): 22.5 mm
MIC [13]: 0.39 µg/mL (≈ 1.27 µM)
MIC (Proteus species C73-34): 12.5 µg/mL (≈ 40.8 µM)
MIC [14]: 0.39 µg/mL (≈ 1.27 µM)
MIC (Proteus species C73-25): 3.13 µg/mL (≈ 10.2 µM)
MIC [15]: 1.56 µg/mL (≈ 5.09 µM)
MIC [16]: 0.2 µg/mL (≈ 0.653 µM)
MIC [17]: 1.56 µg/mL (≈ 5.09 µM)
MIC [18]: 1.56 µg/mL (≈ 5.09 µM)
